Columns and labels:
TNAP [1] = molecular target: T1, TNAP (Homo sapiens, UniProt P05186); assay: luminescent CDP-star-based TNAP assay, MLSMR screen (PubChem AID 518)
T1 sequence (P05186 18-502 limits assumed): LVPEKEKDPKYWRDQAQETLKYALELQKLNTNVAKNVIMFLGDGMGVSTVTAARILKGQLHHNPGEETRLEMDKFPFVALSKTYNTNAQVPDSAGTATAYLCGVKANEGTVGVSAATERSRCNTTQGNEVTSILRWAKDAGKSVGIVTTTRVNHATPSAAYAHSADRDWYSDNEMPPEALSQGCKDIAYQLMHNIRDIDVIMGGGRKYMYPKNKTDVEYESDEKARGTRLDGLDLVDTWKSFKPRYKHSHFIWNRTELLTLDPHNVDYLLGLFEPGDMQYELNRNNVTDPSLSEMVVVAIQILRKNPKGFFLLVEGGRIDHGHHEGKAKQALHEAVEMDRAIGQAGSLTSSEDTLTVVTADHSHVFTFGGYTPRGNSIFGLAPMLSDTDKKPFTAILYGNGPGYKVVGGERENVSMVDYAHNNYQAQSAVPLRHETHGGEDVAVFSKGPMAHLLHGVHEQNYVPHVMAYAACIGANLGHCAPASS
Text: To address this issue, a TNAP assay was developed. This assay is based on the dephosphorylation of a CDP-star® alkaline phosphatase substrate (New England Biolabs, Inc.) designed to detect alkaline phosphatase in blotting techniques (FIG. 6). As with many chemiluminescent reactions, the dioxetane-based reaction represents a sequence of several steps. Dioxetane-phosphate is dephosphorylated by an alkaline phosphatase leading to the generation of an unstable product that decomposes to a stable product with concomitant light production. Once the steady-state of the overall reaction is achieved (in the current reaction it happens within the first 5 min), the luminescence signal output is stable over several hours. As an added bonus, the light intensity of the chemiluminescent reaction is directly proportional to the rate of the TNAP reaction; therefore, the activity of the enzyme can be reliably measured in real-time.
In this table, the column corresponding to TNAP (luminescence) was calculated as (100−X)/100, where X is % inhibition. In some aspects, TNAP activation fact refers to the fold increase in TNAP activity. There are two tiers of data confirmation embedded in the data.

TNAP [2] = molecular target: T1, TNAP; assay: optimized TNAP activation assay, CAPS buffer pH 9.8, CDP-Star luminescence; assay type: biochemical
Protocol: The activity of TNAP (1/800) was measured in 50 mM CAPS, pH 9.8, containing 1 mM MgCl2, 20 uM ZnCl2 and varied concentrations of CDP-Star. The luminescence signal was obtained using 384-well white small-volume plates (Greiner 784075) on a PE Envision plate reader. Experimental data were analyzed using the Michaelis-Menten equation.
The activity of TNAP (1/800) was measured in 50 mM CAPS, pH 9.8, containing 1 mM MgCl2, 20 μM ZnCl2 and 25 μM CDP-Star® in the presence of serially diluted DEA, pH adjusted to 9.8. The luminescence signal, obtained using 384-well white small-volume plate (Greiner 784075) on a PE Envision plate reader, was fitted to 4-parameter sigmoidal equation. The best-fit curve is shown as a solid line.
The luminescent assay was further optimized to ensure its maximum sensitivity to compounds activating TNAP. […] This assay can provide a more accurate measure of phosphatase activity, as opposed to transphosphorylation, activity that might be more relevant to in vivo conditions. The previously utilized assay was performed in the presence DEA at a concentration of CDP-star equal to its Km value. However, the appropriate concentration of the components was needed for the new buffer. TNAP activity vs. its concentration was tested as a function of TNAP concentrations (FIG. 7).
It was observed that TNAP activity was linearly dependent over an extended range of TNAP concentrations. A 1/800 concentration of TNAP was used for further work; this concentration is 1315-fold above the limit of detection of the assay. To ensure that substrate concentration is correctly adjusted in the new assay, TNAP activity was tested in the presence of varied CDP-star® concentrations (FIG. 8). It was decided to fix the concentration of CDP-star® at 25 uM (˜Km) to provide enough sensitivity even for compounds competitive with the CDP-star® substrate. In the next experiment, the activation of TNAP was tested with DEA (FIG. 9).
600 mM DEA (pH 9.8) was chosen as the positive control for TNAP activation screening. […]

[3] = calculated as (100-X)/100, where X is % inhibition, luminescence
[4] = TNAP 1/800, 50 mM CAPS pH 9.8, Michaelis-Menten

Row | SMILES | TNAP Activation Factor (TNAP [1]; [3]) | other results
1 | C1CCC(c2nn3c(-c4[nH]nc5c4CCC5)nnc3s2)CC1 [Compound 26] | 1.5 | 
2 | Oc1c(C(c2ccccn2)N2CCOCC2)ccc2cccnc12 (centres unmarked) [drawing 68, 7-[morpholino(pyridin-2-yl)methyl]quinolin-8-ol] |  | TNAP Activation Factor (TNAP [1]; Table 3): 1.7
3 | N=c1c2c(-c3ccccc3)c(-c3ccccc3)n(Cc3ccccc3)c2ncn1CCCn1ccnc1 [Compound 3] | 4.3 | 
4 | Nc1[nH]nc2nc(NCc3ccccc3)c3c(c12)CCN(Cc1ccccc1)C3 [Compound 11] | 1.9 | 
5 | OCCN(CCO)c1nc(N2CCCCC2)c2nc(N(CCO)CCO)nc(N3CCCCC3)c2n1 [2,2′,2″,2′″-[4,8-di(piperidin-1-yl)pyrimido[5,4-d]pyrimidine-2,6-diyl]bis(azanetriyl)tetraethanol] |  | TNAP Activation Factor (TNAP [1]; Table 3): 1.6
6 | O=C(CN(Cc1ccco1)C(=O)CNS(=O)(=O)c1ccc(F)cc1)NCc1ccc(F)cc1 [Compound 16] | 1.7 | 
7 | O=C(CN(Cc1ccco1)C(=O)CNS(=O)(=O)c1ccc(F)cc1)NCc1ccc(F)cc1 [drawing 76, N-[2-(4-fluorobenzylamino)-2-oxoethyl]-2-(4-fluorphenylsulfonamido)-N-(furan-2-ylmethyl)acetamide] |  | TNAP Activation Factor (TNAP [1]; Table 3): 1.7
8 | NC1=NC2(CCC(c3ccccc3)CC2)n2c(nc3ccccc32)N1 (centres unmarked) [Compound 20] | 1.6 | 
9 | CCN(CC)c1ccc2cc(-c3nc4ccccc4n3C)c(=O)oc2c1 [Compound 4] | 2.8 | 
10 | COc1cccc(N(C(=O)c2cc[nH]n2)C2(C(=O)Nc3c(C)cccc3C)CCCCC2)c1 [Compound 23] | 1.6 | 
11 | Cc1nn2c(O)cc(C(C)(C)C)nc2c1-c1ccccc1 [Compound 13] | 1.8 | 
12 | OCCCN1c2ccccc2Nc2nnc(-c3ccccc3)cc21 [drawing 70, 3-(3-phenylpyridazino[3,4-b]quinoxalin-5(10H)-yl)propan-1-ol] |  | TNAP Activation Factor (TNAP [1]; Table 3): 1.5
13 | CC(C)n1c(NCc2nc3ccccc3n2C)nc2ccccc21 [drawing 45, 1-isopropyl-N-[(1-methyl-1H-benzo[d]imidazol-2-yl)methyl]-1H-benzo[d]imidazol-2-amine] |  | TNAP Activation Factor (TNAP [1]; Table 2): 2.0
14 | O=C(CN1C(=O)CCC1=O)Nc1nc(-c2ccccn2)cs1 [Compound 9] | 2.0 | 
15 | COc1ccc(CCNC(=O)c2cc(-c3ccccc3O)[nH]n2)cc1OC [drawing 75, N-(3,4-dimethoxyphenethyl)-5-(2-hydroxyphenyl)-1H-pyrazole-3-carboxamide] |  | TNAP Activation Factor (TNAP [1]; Table 3): 1.9
16 | Clc1ccc(COC(Cn2ccnc2)c2ccc(Cl)cc2Cl)c(Cl)c1 (centres unmarked) [Compound 17] | 1.7 | 
17 | Cc1cc(C2N=C(N)Nc3nc4ccccc4n32)c(C)n1-c1ccccc1Cl (centres unmarked) [drawing 66] |  | TNAP Activation Factor (TNAP [1]; Table 3): 2.2
18 | OCCCN1c2ccccc2Nc2nnc(-c3ccccc3)cc21 [Compound 25] | 1.5 | 
19 | OCCNCCO [DEA, diethanolamine] |  | Maximal activation, higher activity than in the absence of DEA (TNAP [2]; TNAP 1/800, 25 μM CDP-Star, pH 9.8): 9.4 fold

Row | SMILES | TNAP Activation Factor (TNAP [1]; [3]) | other results
20 | O=S(=O)(CCc1ncc(-c2ccccc2)o1)c1ccc2ccccc2c1 [Compound 21] | 1.6 | 
21 | NC1=NC(c2cn(-c3ccccc3)nc2-c2cccs2)n2c(nc3ccccc32)N1 (centres unmarked) [drawing 72] |  | TNAP Activation Factor (TNAP [1]; Table 3): 1.5
22 | O=C(CN1C(=O)CCC1=O)Nc1nc(-c2ccccn2)cs1 [drawing 29, 2-(2,5-dioxopyrrolidin-1-yl)-N-[4-(pyridine-2-yl)thiazol-2-yl]acetamide] |  | TNAP Activation Factor (TNAP [1]; Table 1): 2.0
23 | Cc1cc(C2N=C(N)Nc3nc4ccccc4n32)c(C)n1-c1ccccc1Cl (centres unmarked) [Compound 6] | 2.2 | 
24 | N=c1c2c(-c3ccccc3)c(-c3ccccc3)n(Cc3ccccc3)c2ncn1CCCn1ccnc1 [drawing 64, 3-[3-(1H-imidazol-1-yl)propyl]-7-benzyl-5,6-diphenyl-3H-pyrrolo[2,3-d]pyrimidin-4(7H)-imine] |  | TNAP Activation Factor (TNAP [1]; Table 3): 4.3
25 | c1nc(-c2[nH]nc3c2CCC3)n2nc(C3CCCCC3)sc12 [6-cyclohexyl-3-(2,4,5,6-tetrahydrocyclopenta[c]pyrazol-3-yl)-[1,2,4]triazole[3,4-b][1,3,4]thiadiazole] |  | TNAP Activation Factor (TNAP [1]; Table 3): 1.5
26 | OCCN1CCOCCN(CCO)CCN(CCO)CC1 [drawing 74, 2,2′,2″-(1-oxa-4,7,10-triazacyclododecane-4,7,10-triyl)ethanol] |  | TNAP Activation Factor (TNAP [1]; Table 3): 1.9
27 | Cc1nn2c(O)cc(C(C)(C)C)nc2c1-c1ccccc1 [drawing 67, 5-tert-butyl-2-methyl-3-phenylpyrazolo[1,5-a]pyrimidin-7-ol] |  | TNAP Activation Factor (TNAP [1]; Table 3): 1.8
28 | O=C(Nc1cccc(OC(F)(F)F)c1)c1ccc(Br)o1 [Compound 19] | 1.6 | 
29 | OCCN(CCO)c1cc2c(N3CCCCC3)nc(N(CCO)CCO)nc2c(N2CCCCC2)n1 [Compound 18] | 1.6 | 
30 | COc1ccc(CCNC(=O)c2cc(-c3ccccc3O)[nH]n2)cc1OC [Compound 12] | 1.9 | 
31 | NC1=NC(c2cn(-c3ccccc3)nc2-c2cccs2)n2c(nc3ccccc32)N1 (centres unmarked) [Compound 28] | 1.5 | 
32 | OCCN1CCOCCN(CCO)CCN(CCO)CC1 [Compound 10] | 1.9 | 
33 | COC1(c2ccc(Cl)c(OP(=O)([O-])[O-])c2)OOC12C1CC3CC2CC(Cl)(C3)C1.[Na+].[Na+] (centres unmarked) [CDP-star, Disodium 2-chloro-5-(4-methoxyspiro{1,2-dioxetane-3,2′-(5′-chloro)-ricyclo[3.3.1.13,7]decan}-4-yl)-1-phenyl phosphate] |  | Km (TNAP [2]; [4]): 21.9 ± 3.4 µM; Vmax (TNAP [2]; [4]): 10300±408 RLU
34 | Oc1c(C(c2ccccn2)N2CCOCC2)ccc2cccnc12 (centres unmarked) [Compound 15] | 1.7 | 
35 | CC(C)n1c(NCc2nc3ccccc3n2C)nc2ccccc21 [Compound 7] | 2.0 | 
36 | CCc1ccc(-c2nc(CN3CCC(C(=O)NCCN(CC)c4ccccc4)CC3)c(C)o2)cc1 [Compound 22] | 1.6 | 
37 | Nc1[nH]nc2nc(NCc3ccccc3)c3c(c12)CCN(Cc1ccccc1)C3 [drawing 47, N^5,7-dibenzyl-6,7,8,9-tetrahydro-2H-pyrazolo[3,4-c][2,7]napythyridine-1,5-diamine] |  | TNAP Activation Factor (TNAP [1]; Table 2): 1.9

From US20090053192A1, “TISSUE-NONSPECIFIC ALKALINE PHOSPHATASE (TNAP) ACTIVATORS AND USES THEREOF” (BURNHAM INSTITUTE FOR MEDICAL RESEARCH, priority 2007, published 2009)
